Reference: PMC12188386, “Selective CBP/EP300 Bromodomain Inhibitors: Novel Epigenetic Tools to Counter TNF-α-Driven Inflammation” (JACS Au, 2025)
In brackets after ≈: the same amount, converted by molar mass. Where two headings read alike, the source gives them in different places.

What was measured:
[1] = tested on: TNF-α-induced cytokine expression in THP-1 cells; assay: cytokine mRNA expression by RT-qPCR; format: cell-based, human; conditions: 1 h co-treatment of THP-1 cells with 10 ng/mL TNF-α and 1 μM compound
Protocol: For cytokine expression determination, 5x10^5 THP-1 cells were plated on 12 well plates the day prior to treatment with 10 ng/mL recombinant human TNF -α (aa 77-233) protein (R&D systems, 10291 -TA) and compounds at a final concentration of 0.1 % DMSO. In all cases, total
(§1) RNA was extracted using the NucleoSpin® RNA kit (Machery -Nagel) and used for cDNA synthesis with the High -Capacity cDNA Reverse Transcription kit (Applied Biosystems). RT-qPCR reactions were performed using PowerSYBR™ green PCR Master Mix (Applied Biosystems) and a LightCycler® 480 (Roche). cDNA was denatured for 10 min at 95 °C followed by 40 cycles of 15 s at 95 °C and 1 min at 60 °C. Cp values were determined as the maximum of the second derivative and target gene expression was compared to that of hprt from the same sample using the 2-ΔCp method. Gene expression was then normalized to the average of the control samples from the same day, or all biological replicates. […]

[2] = tested on: TNF-α-induced IL-8 secretion from THP-1 cells; assay: cytokine protein measurement (LEGENDPlex); format: cell-based, human; conditions: 10 ng/mL TNF-α, 1 μM compound
Protocol: For cytokine expression determination, 5x10^5 THP-1 cells were plated on 12 well plates the day prior to treatment with 10 ng/mL recombinant human TNF -α (aa 77-233) protein (R&D systems, 10291 -TA) and compounds at a final concentration of 0.1 % DMSO. In all cases, total […]
Cytokine protein measurements
THP-1 cells were plated and treated as for the quantitative RT -PCR, then the cell culture medium was harvested by pelleting the cells (300g, 3min) and taking the supernatant .
Cytokine protein concentrations were determined using the LEGENDPlexTM Human Inflammation Panel 1 (BioLegend) assay with 25 µL of culture medium following the manufacturer’s instructi ns. amp es were ana zed f w c t metr n an rtessa Biosciences), and data was analyzed using LEGENDPlex software (BioLegend).

MRC5 cells = assay: viability assay (resazurin); format: cell-based; conditions: three-day treatment, concentration resulting in 70 % viability
Protocol: MRC5 (2x10^3 cells/well) or THP-1 (8x10^3 cells/well) cells were plated onto 96 well plates and treated with compounds at a final DMSO concentration of 0.5 % (MRC5) or 0.1 % (THP-1).
After 3 days of treatment, resazurin (Acros Organics) was added at a final concentration of 86 μ and incu ated for 2h15 (MRC5) or 3 h (THP-1). Fluorescence (ex. 560 nm, em. 590 nm) was read using a SpectraMax M5 (Molecular devices). GI30 values were calculated as the compound concentration resulting in 70 % viability compared to DMSO treated controls using a nonlinear regression fit using GraphPad Prism with the following equation: (Y=Bottom + (100-Bottom)/(1+(IC50/X)^HillSlope)). […]
After 1.5 h, mice were injected with 10 µL of the prepared CAPTISOL […]
foodpad and also intraperitoneally (for i.p. injection, the 10 µL of CAPTISOL solution was diluted to a final volume of 100 µL using PBS). Organs were collected 5 h after TNF-α […]
LEGENDPlexTM assays (Mouse Pro-inflammatory Chemokine Panel and Mouse Inflammation Panel; Biolegend) were performed to monitor cytokine/chemokine expression. Briefly, popliteal LNs were collected and carefully disrupted in […] ice-cold phosphate buffer, minimizing cell rupture. The suspension was centrifuged at 1,500 rpm for 5 min, and the […]

CBP-BRD = conditions: TR-FRET, read-out: Affinity to CBP-BRD, IC50, cited from earlier work
BRD4(1)-BRD = conditions: cited from earlier work
kinetic solubility = format: physicochemical; conditions: PBS buffer, aqueous buffer, kinetic from dmso stock, PBS pH 7.4, 37°C, ± st. dev. between technical replicates, read-out: Kin. Sol.
Protocol: Starting from an initial concentration of 100, 50 or 20 µM, a 2-fold serial dilution of the compound (10 mM stock in DMSO) was prepared in a mixture of ACN/Buffer (PBS, pH = 7.4) 2:8, with 1% DMSO. 350 µL was transferred to a 96-Well Plate (Greiner, UV-star) then UV absorption (240-400 nm, 10 nm steps) was measured. The absorption was blank-corrected and plotted against concentration. The wavelength (λ) providing the best fitting straight line […]
was used as the calibration curve. To obtain saturated solutions of the compounds of interest, in duplicates 4.4 µL of a 10 or 5 mM stock in DMSO was added to 436 µL Buffer (PBS, pH = 7.4), to give a final concentration of 100 or 50 µM. Samples were incubated on a shaker (500 rpm) at 37°C for 90 minutes and then filtered (Millex-GV 13 mm, 0.22 µm). 304 µL of the filtrate was mixed with 76 µL of acetonitrile on a dilution plate, from which 350 µL was transferred to a UV-plate and UV-absorption was read using a SpectraMax M5 (Molecular devices). The absorbance was blank-corrected and compared to the calibration curve to […]
solubility. The wavelengths used for the calibration curve are available in Table S4.
Based on the known density of 12.5 % CAPTISOL® solution (d = 1.05755 g/mL at 25 °C), the precise weight of the resulting solution and so the required amount of water by weight was calculated. The water was added portion wise with agitation, vortexing and sonication cycles in between additions. The saturated solutions were then filtered (Millex-GV 13 mm, 0.22 µm). In duplicates, aliquots of the filtrates were taken and diluted with blank 12.5 % CAPTISOL® water solution in either a 1:14 (higher sol. compounds) or 1:7 (lower sol. compounds) ratio, 350 µL was transferred to a 96-Well Plate (Greiner, UV-star) then UV absorption (240-400 nm, 10 nm steps) was measured using a SpectraMax M5 (Molecular devices). The absorption was blank-corrected, compared to the calibration curve obtained during the solubility measurement method above and finally corrected for the dilution ratio to obtain the compound concentration in the saturated 12.5 % CAPTISOL® solution. The calculated concentrations are available in Table S4.
BROMOscan™ assays (provided by Eurofins DiscoverX, US)1,2 […]
coli host derived from the BL21 strain. E. coli were grown to log-phase and infected with T7 phage from a frozen stock (multiplicity of infection = 0.4) and incubated with shaking at 32°C until lysis (90-150 minutes). The lysates were centrifuged (5,000 x g) and filtered (0.2µm) to remove cell debris. Streptavidin-coated magnetic beads were treated with biotinylated small molecule or acetylated peptide ligands for 30 minutes at room temperature to generate affinity resins for bromodomain assays. The liganded beads were blocked with excess biotin and washed with blocking buffer (SeaBlock (Pierce), 1 % BSA, 0.05 % Tween 20, 1 mM DTT) to remove unbound ligand and to reduce non specific phage binding. Binding reactions were assembled by combining bromodomains, liganded affinity beads, and test compounds (see […]
Sodium azide, 7.4 mM DTT). All reactions were performed in polypropylene 384-well plates in a final volume of 0.02 mL. The assay plates were incubated at room temperature with […]
20). The beads were then resuspended in elution buffer (1x PBS, 0.05% Tween 20, 2 µM non-

[3] = biological target: T1, CBP-BRD (ePL-CBP-BRD in HEK293T cells) (Homo sapiens, UniProt Q92793); assay: CBP-BRD InCELL Pulse cellular target engagement; format: cell-based; conditions: 1 h compound treatment of HEK293T cells transiently transfected with ePL-CBP-BRD
T1 construct: (residues 1083-1197) was cloned into the pICP-ePL-C vector; expressed in transfected cells; host or cells: HEK293T, transient transfection (vector pICP-ePL-C, DiscoverX 94-4007S)
Protocol: The CBP-BRD (residues 1083-1197) was cloned into the pICP-ePL-C vector (DiscoverX, 94-4007S) between the EcoRI and XhoI restriction sites using the hexahistidine-CREBBP plasmid as a template. 5x10^5 HEK293T cells were plated on a 6 well plate the day prior to transfection with 1.5 μg ePL-CBP-BRD plasmid using 5 μl FugeneHD (Promega E2311) in 500 μl optiMEM® (Gibco, 31985062) . Proteins were allowed to express for 20 h before cells were trypsinized, washed and resuspended in low -serum medium (DMEM with 5 % FBS). Compounds were serially diluted in DMSO at 100x, pre-diluted to 5x in complete medium (DMEM with 10 % FBS and 1 % P/S), then added to a suspension of 5x10^3 cells, giving a final DMSO concentration of 1 %. Treated cells were incubated for 1 h at 37 °C in an incubator, followed by a heat shock for 3 min at 45 °C and recovery for 3 min at 22 °C using a thermocycler with a ramp rate of 1 °C/s (SimpliAmp, Thermo Fisher). Stab ilized ePL tag was quantified using the InCELL detecti n Kit isc verX as per the manufacturer’s pr t c usin the -10 working detection solution and a 2 h incubation before reading luminescence with a SpectraMax M5 plate reader (Molecular devices). […]

[4] = tested on: myc expression in LP1 cells; assay: myc mRNA expression by RT-qPCR; format: cell-based; conditions: 4 h treatment of LP1 cells with 1 μM compound
Protocol: For myc expression, 1x10^6 LP1 cells were plated the day prior to a 4 h treatment with compounds at a final DMSO concentration of 0.1 %. […]
In all cases, total
as §1

T1 sequence (Q92793 1083-1197): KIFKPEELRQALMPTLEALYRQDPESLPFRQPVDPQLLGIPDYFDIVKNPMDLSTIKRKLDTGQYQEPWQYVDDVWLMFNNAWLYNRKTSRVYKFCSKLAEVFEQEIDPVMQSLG

## CNC(=O)Nc1ccc2c(c1)CC[C@@]21OC(=O)N(CC(=O)N(Cc2ccc(F)cc2)[C@@H](C)C(F)(F)F)C1=O [A485]
[1]
  TNF-α-induced expression of il1β, il8, mcp-1 and tnf-α (mRNA): significantly reduced the TNF-α-induced expression of all four tested genes
[2]
  TNF-α-induced IL-8 protein secretion: significantly reducing its TNF-α-induced secretion
MRC5 cells
  GI30: 1.2 µM

## C[C@@H]1CC(=O)Nc2cccc(-c3ccc4c(c3)c(-c3cnn(C)c3)nn4C)c2N1 [CPI-637]
CBP-BRD; ref Taylor et al., 2016
  IC50: 0.03 µM
BRD4(1)-BRD; ref Taylor et al., 2016
  Sel. over BRD4(1)-BRD: 367 fold

## Cc1cc2c(NC(=O)c3cc(NC(=O)c4ccco4)cc(-c4nn(C)cc4Cl)c3)cccc2nn1 [Compound 3]
Kinetic solubility
  solubility kinetic at 90 min: 9.5 ± 0.4 µM (≈ 4.63 µg/mL)

## Cc1cc2c(NC(=O)c3cc(NC(=O)c4ccco4)cc(-c4c(C)n[nH]c4C)c3)cccc2nn1 [Compound 4]
Kinetic solubility
  solubility kinetic at 90 min: 6 ± 1 µM (≈ 2.8 µg/mL)

## Cc1cc2c(NC(=O)c3cc(NC(=O)[C@@H]4CCCO4)cc(-c4ccn(C)n4)c3)cccc2nn1 [Compound 6]
Kinetic solubility
  solubility kinetic at 90 min: 71 ± 0.7 µM (≈ 32.4 µg/mL)
[3]
  cellular binding to CBP-BRD (InCELL Pulse): able to engage the target very similarly
[4]
  myc mRNA expression: significantly decreased the expression level of myc

## Cc1cc2c(NC(=O)c3cc(NC(=O)C4COC4)cc(-c4ccn(C)n4)c3)cccc2nn1 [Compound 7]
Kinetic solubility
  solubility kinetic at 90 min: 82.6 ± 0.7 µM (≈ 36.5 µg/mL)

## Cc1cc2c(NC(=O)c3cc(NC(=O)c4ccc(CN5CCN(C)CC5)o4)cc(-c4ccn(C)n4)c3)cccc2nn1 [Compound 8]
Kinetic solubility
  solubility kinetic at 90 min: 69.9 ± 2.3 µM (≈ 39.5 µg/mL)

## CNC(=O)N1CCc2c(c(N3CCCc4cc(-c5cnn(C)c5)c(C(F)F)cc43)nn2C2CCOCC2)C1 [GNE-781]
CBP-BRD; ref Romero et al., 2017
  IC50: 0.0009 µM
BRD4(1)-BRD; ref Romero et al., 2017
  Sel. over BRD4(1)-BRD: 5425 fold

## COc1ccc(CCc2nc3cc(-c4c(C)noc4C)ccc3n2C[C@H](C)N2CCOCC2)cc1Cl [SGC-CBP30]
BRD4(1)-BRD; ref Hay et al., 2014
  Sel. over BRD4(1)-BRD: 40 fold

## COc1ccc(CCc2nc3cc(-c4c(C)noc4C)ccn3c2NC2CCCCC2)cc1Cl [UMB298]
BRD4(1)-BRD; ref Muthengi et al., 2021
  Sel. over BRD4(1)-BRD: 72 fold
